The text below walks through data of patent publication US8796303B2, “Imidazo[2,1-G][1,7]naphthyridines for treating respiratory syncytial virus infections” (Biota Scientific Management Pty Ltd., priority 2010, dated 2014).

In general, EC50 refers to the concentration at which the effect is half-maximal. By solubility is commonly meant how much of the substance goes into solution per volume.

In brackets after ≈: the same amount, converted by molar mass. Read-outs that look alike come from different tables or passages of the source.

One data set has as its system RSV A2. In words: RSV antiviral CPE assay in HEp2 cells (MTT). The format is cell-based, respiratory syncytial virus. As to conditions: for EC50: human respiratory syncytial virus, HEp-2, 120 h, HEp2 cells, RSV A2 moi ~0.01, 5 days, CPE by MTT; for activity compared with the 3-substituted isoxazol-4-yls of the present invention: comparative RSV activity. How it is done: Compounds of the invention were tested for their antiviral activity against respiratory syncytial virus. Cytopathic effect (CPE) assays were performed essentially as described in the literature (see for example Watanabe et al, 1994, J. Virological Methods, 48:257). Serial dilutions of the test compounds were made in 96 well plates. HEp2 cells (1.0×10^4 cells/well) were infected with RSV at a low multiplicity of infection (e.g. RSV A2 at an moi of ˜0.01) and added to plates to assess antiviral activity. Uninfected HEp2 cells were used to assess compound cytotoxicity. Assays were incubated for 5 days at 37° C. in a 5% CO2 atmosphere. The extent of CPE was determined via metabolism of the vital dye 3-(4,5-dimethylthiaxol-2-yl)-2,5-diphenyltetrazolium bromide (MTT). MTT (1 mg/ml) was added to each well and plates incubated for 2 hours incubation at 37° C. Wells were aspirated, iso-propanol (200 μL) was added and absorbance values read at 540/650 nm. Compound concentrations that inhibited CPE by 50% (EC50) and developed cytotoxicity (CC50) were calculated using non-linear regression analysis. The CC50 values of the compounds tested were determined to be >5000 nM.

Data set [1] can be described thus: Aqueous solubility by laser nephelometry. As to conditions: for solubility at 30 min: kinetic from dmso stock, 1% DMSO, 30 minute incubation at 25° C., range 1.6-100; for solubility compared with the 3-substituted isoxazol-4-yls of the present invention: comparative solubility. The format is physicochemical. The protocol:
Test compounds prepared in DMSO were screened in duplicate over a range of concentrations (1.6-100 ug/mL) in different aqueous media (for example pH2 or pH6.5 buffers which are relevant to the stomach and upper regions of the small intestine). Test compounds were serially diluted in 100% DMSO ranging from 10-0.16 mg/mL. These diluted compounds were then added to test plates (UV Star Griener 96 well plates) containing assay buffers with a further 1:100 dilution keeping a constant 1% DMSO concentration across the plate.

The mark [2] stands for this setting: pH 2, simulated gastric fluid, pH2 buffer, read-out: Solubility at pH2.
Where [3] appears, read: pH 6.5, aqueous buffer, pH6.5 buffer, read-out: Solubility at pH6.5.

Compound `Cc1nocc1C(=O)N1CCN2C(=O)c3nccnc3C[C@]12c1ccc(Cl)cc1` (single isomer, unassigned) [Compound 1A] displayed a 50% effective concentration (EC50) with RSV A2 of 5.2 nM. In addition, the figures for the solubility at 30 min in data set [1] (setting [2]) and in data set [1] (setting [3]) were 50 to 100 µg/mL (≈ 122 to 244 µM) and > 100 µg/mL, respectively.
Turning to `Cc1nocc1C(=O)N1CCN2C(=O)c3ncccc3C[C@@]12c1ccc(Cl)cc1` (single isomer, unassigned) [Compound 2B], in the data set on RSV A2, a half-maximal response (EC50) required 5000 nM.
On to `Cc1nocc1C(=O)N1CCN2C(=O)c3ncccc3C[C@]12c1ccc(F)cc1` (single isomer, unassigned) [Compound 4A], for which a half-maximal effect in the data set with RSV A2 (EC50) was put at 16.3 nM. The solubility at 30 min in data set [1] (setting [2]) and in data set [1] (setting [3]) was > 100 µg/mL each time.
Turning to `Cc1nocc1C(=O)N1CCN2C(=O)c3nccnc3C[C@]12c1ccc(F)cc1` (single isomer, unassigned) [Compound 5A], the EC50 in the data set on RSV A2 was determined as 12.4 nM. The solubility at 30 min in data set [1] (setting [2]) and in data set [1] (setting [3]) was > 100 µg/mL throughout.
Turning to `Cc1cc([C@]23Cc4cccnc4C(=O)N2CCN3C(=O)c2conc2C)ccc1F` (single isomer, unassigned) [Compound 6A], the half-maximal effective concentration (EC50) in the data set on RSV A2 turned out to be 7.7 nM. The solubility at 30 min is 50 to 100 µg/mL (≈ 123 to 246 µM) in data set [1] (setting [2]) and > 100 µg/mL in data set [1] (setting [3]).
For the compound `Cc1nocc1C(=O)N1CCN2C(=O)c3nccnc3CC12c1ccc(Cl)cc1` (stereo not drawn) [Compound 1, 5a-(4-chlorophenyl)-6-[(3-methyl-1,2-oxazol-4-yl)carbonyl]-5a,6,7,8-tetrahydroimidazo[1′,2′:1,6]pyrido[3,4-b]pyrazin-10(5H)-one], the EC50 with RSV A2 is 6.3 nM. Moreover, the solubility at 30 min in data set [1] (setting [2]) and in data set [1] (setting [3]) was 50 to 100 µg/mL (≈ 122 to 244 µM) throughout.
Turning to `O=C(c1ccno1)N1CCN2C(=O)c3ccccc3CC12c1ccc(Cl)cc1` (stereo not drawn) [Compound 1-025, reference compound], in the data set on RSV A2, the “activity compared with the 3-substituted isoxazol-4-yls of the present invention” value is reported as “less active” and the concentration giving a half-maximal response (EC50) was found to be 1710 nM. For the same compound, the “solubility compared with the 3-substituted isoxazol-4-yls of the present invention” value in data set [1] is given as “less soluble”. In addition, in data set [1] (setting [2]), the solubility at 30 min is 3.1 to 6.3 µg/mL (≈ 7.87 to 16 µM). Further, the solubility at 30 min in data set [1] (setting [3]) fell in the range of 3.1 to 6.3 µg/mL (≈ 7.87 to 16 µM).
Take `O=C(c1ccon1)N1CCN2C(=O)c3cccc(F)c3CC12c1ccc(Cl)cc1` (stereo not drawn) [Compound 1-086, reference compound]: in the data set on RSV A2, the “activity compared with the 3-substituted isoxazol-4-yls of the present invention” value was “less active” and the response was half-maximal at 175 nM (EC50). Also, in data set [1], the “solubility compared with the 3-substituted isoxazol-4-yls of the present invention” value is on record as “less soluble”. Moreover, the solubility at 30 min in data set [1] (setting [2]) is < 1.6 µg/mL. Moreover, in data set [1] (setting [3]), the solubility at 30 min was < 1.6 µg/mL.
For `O=C(c1ccno1)N1CCN2C(=O)c3cccc(F)c3CC12c1ccc(Cl)cc1` (stereo not drawn) [Compound 1-088, reference compound], in the data set on RSV A2, the “activity compared with the 3-substituted isoxazol-4-yls of the present invention” value is “less active” and the EC50 was 267 nM. Further, the “solubility compared with the 3-substituted isoxazol-4-yls of the present invention” value in data set [1] is given as “less soluble”. The solubility at 30 min in data set [1] (setting [2]) was 3.1 to 6.3 µg/mL (≈ 7.53 to 15.3 µM). For the same compound, in data set [1] (setting [3]), the solubility at 30 min is 3.1 to 6.3 µg/mL (≈ 7.53 to 15.3 µM).
Consider `O=C(c1ccno1)N1CCN2C(=O)c3cccnc3CC12c1ccc(Cl)cc1` (stereo not drawn) [Compound 1-100, reference compound], for which, in the data set with RSV A2, the “activity compared with the 3-substituted isoxazol-4-yls of the present invention” value is “less active” and the concentration giving a half-maximal response (EC50) is 560 nM. Further, the “solubility compared with the 3-substituted isoxazol-4-yls of the present invention” value in data set [1] is reported as “less soluble”.
As to `COc1ccc(C23Cc4cccnc4C(=O)N2CCN3C(=O)c2conc2C)cc1` (stereo not drawn) [Compound 3, 10a-(4-methoxyphenyl)-1-[(3-methyl-1,2-oxazol-4-yl)carbonyl]-2,3,10,10a-tetrahydroimidazo[2,1-g][1,7]naphthyridin-5(1H)-one], the response with RSV A2 was half-maximal at 83.1 nM (EC50). The solubility at 30 min in data set [1] (setting [2]) and in data set [1] (setting [3]) was > 100 µg/mL in each case.
In turn, `Cc1nocc1C(=O)N1CCN2C(=O)c3ncccc3CC12c1ccc(F)cc1` (stereo not drawn) [Compound 4, 10a-(4-fluorophenyl)-1-[(3-methyl-1,2-oxazol-4-yl)carbonyl]-2,3,10,10a-tetrahydroimidazo[2,1-g][1,7]naphthyridin-5(1H)-one] gave a concentration giving a half-maximal response (EC50) in the data set on RSV A2 of 27.5 nM. For the same compound, the solubility at 30 min in data set [1] (setting [2]) and in data set [1] (setting [3]) was > 100 µg/mL throughout.
For `Cc1nocc1C(=O)N1CCN2C(=O)c3nccnc3CC12c1ccc(F)cc1` (stereo not drawn) [Compound 5, 5a-(4-fluorophenyl)-6-[(3-methyl-1,2-oxazol-4-yl)carbonyl]-5a,6,7,8-tetrahydroimidazo[1′,2′:1,6]pyrido[3,4-b]pyrazin-10(5H)-one], it took 27.6 nM to reach a half-maximal effect with RSV A2 (EC50). The solubility at 30 min in data set [1] (setting [2]) and in data set [1] (setting [3]) was > 100 µg/mL each time.
In the data set with RSV A2, `Cc1cc(C23Cc4cccnc4C(=O)N2CCN3C(=O)c2conc2C)ccc1F` (stereo not drawn) [Compound 6, 10a-(4-fluoro-3-methylphenyl)-1-[(3-methyl-1,2-oxazol-4-yl)carbonyl]-2,3,10,10a-tetrahydroimidazo[2,1-g][1,7]naphthyridin-5(1H)-one] displayed a concentration giving a half-maximal response (EC50) of 6.4 nM. The solubility at 30 min was 25 to 50 µg/mL (≈ 61.5 to 123 µM) in data set [1] (setting [2]) and 50 to 100 µg/mL (≈ 123 to 246 µM) in data set [1] (setting [3]).
Regarding `Cc1nocc1C(=O)N1CCN2C(=O)c3ncccc3CC12c1ccc(F)c(F)c1` (stereo not drawn) [Compound 7, 10a-(3,4-difluorophenyl)-1-[(3-methyl-1,2-oxazol-4-yl)carbonyl]-2,3,10,10a-tetrahydroimidazo[2,1-g][1,7]naphthyridin-5(1H)-one], the half-maximal effective concentration (EC50) with RSV A2 is 35 nM. For the same compound, the solubility at 30 min was 25 to 50 µg/mL (≈ 60.9 to 122 µM) in data set [1] (setting [2]) and 50 to 100 µg/mL (≈ 122 to 244 µM) in data set [1] (setting [3]).
On to `Cc1nocc1C(=O)N1CCN2C(=O)c3nccnc3CC12c1ccc(F)c(F)c1` (stereo not drawn) [Compound 8, 5a-(3,4-difluorophenyl)-6-[(3-methyl-1,2-oxazol-4-yl)carbonyl]-5a,6,7,8-tetrahydroimidazo[1′,2′:1,6]pyrido[3,4-b]pyrazin-10(5H)-one], for which, in the data set with RSV A2, the midpoint of the response, the EC50, lay at 30.5 nM. For the same compound, the solubility at 30 min in data set [1] (setting [2]) and in data set [1] (setting [3]) was > 100 µg/mL in each case.
As for `Cc1cc(C23Cc4nccnc4C(=O)N2CCN3C(=O)c2conc2C)ccc1F` (stereo not drawn) [Compound 9, 5a-(4-fluoro-3-methylphenyl)-6-[(3-methyl-1,2-oxazol-4-yl)carbonyl]-5a,6,7,8-tetrahydroimidazo[1′,2′:1,6]pyrido[3,4-b]pyrazin-10(5H)-one], in the data set on RSV A2, the response was half-maximal at 9 nM (EC50). In addition, the figures for the solubility at 30 min in data set [1] (setting [2]) and in data set [1] (setting [3]) were 50 to 100 µg/mL (≈ 123 to 245 µM) and > 100 µg/mL, respectively.
The matching figures for `Cc1nocc1C(=O)N1CCN2C(=O)c3ncccc3CC12c1ccccc1Cl` (stereo not drawn) [Compound 10, 10a-(2-chlorophenyl)-1-[(3-methyl-1,2-oxazol-4-yl)carbonyl]-2,3,10,10a-tetrahydroimidazo[2,1-g][1,7]naphthyridin-5(1H)-one]: 36.9 nM, > 100 µg/mL and > 100 µg/mL.
On to `Cc1nocc1C(=O)N1CCN2C(=O)c3ncccc3CC12C1CCCCC1` (stereo not drawn) [Compound 11, 10a-cyclohexyl-1-[(3-methyl-1,2-oxazol-4-yl)carbonyl]-2,3,10,10a-tetrahydroimidazo[2,1-g][1,7]naphthyridin-5(1H)-one], for which, in the data set with RSV A2, a half-maximal response (EC50) required 70 nM. In addition, the solubility at 30 min in data set [1] (setting [2]) and in data set [1] (setting [3]) was > 100 µg/mL throughout.
`Cc1nocc1C(=O)N1CCN2C(=O)c3ncccc3CC12C1CCC(F)(F)CC1` (stereo not drawn) [Compound 12, 10a-(4,4-difluorocyclohexyl)-1-[(3-methyl-1,2-oxazol-4-yl)carbonyl]-2,3,10,10a-tetrahydroimidazo[2,1-g][1,7]naphthyridin-5(1H)-one]: the half-maximal effective concentration (EC50) with RSV A2 came to 64.4 nM. Besides, the solubility at 30 min in data set [1] (setting [2]) was 50 to 100 µg/mL (≈ 120 to 240 µM); in data set [1] (setting [3]), > 100 µg/mL.
In the data set on RSV A2, `O=C(c1conc1C(F)(F)F)N1CCN2C(=O)c3ncccc3CC12c1ccc(Cl)cc1` (stereo not drawn) [Compound 13, 10a-(4-chlorophenyl)-1-{[3-(trifluoromethyl)-1,2-oxazol-4-yl]carbonyl}-2,3,10,10a-tetrahydroimidazo[2,1-g][1,7]naphthyridin-5(1H)-one] had an EC50 of 7 nM. For the same compound, the solubility at 30 min in data set [1] (setting [2]) and in data set [1] (setting [3]) was 50 to 100 µg/mL (≈ 108 to 216 µM) each time.
Regarding `Cc1nocc1C(=O)N1CCN2C(=O)c3ncccc3CC12c1ccc2c(c1)CCO2` (stereo not drawn) [Compound 14, 10a-(2,3-dihydro-1-benzofuran-5-yl)-1-[(3-methyl-1,2-oxazol-4-yl)carbonyl]-2,3,10,10a-tetrahydroimidazo[2,1-g][1,7]naphthyridin-5(1H)-one], the 50% effective concentration (EC50) in the data set with RSV A2 worked out at 13.6 nM. Also, the figures for the solubility at 30 min in data set [1] (setting [2]) and in data set [1] (setting [3]) were > 100 µg/mL and 50 to 100 µg/mL (≈ 120 to 240 µM), respectively.
As for `Cc1oncc1C(=O)N1CCN2C(=O)c3ncccc3CC12c1ccc(F)cc1` (stereo not drawn) [Compound A, reference compound], the “drop in activity against the 3-substituted isoxazol-4-yl compound of example 4” value with RSV A2 (RSV A2 antiviral activity, compared with example 4) is reported as “ten-fold drop in activity”. This compound also had a 50% effective concentration (EC50) in the data set with RSV A2 of 276 nM.
